Publication PMC6570502 (Chembiochem : a European journal of chemical biology, 2019)
Changes are numbered by the printed parent chain.

Columns and labels:
KDM4A N198G mutant = target: T1, KDM4A N198G mutant (Homo sapiens, UniProt O75164, N198G); assay: MALDI demethylase assay, H3K9me3 substrate peptide, N198G mutant; type: biochemical
T1 sequence (O75164 1-1064 N198G): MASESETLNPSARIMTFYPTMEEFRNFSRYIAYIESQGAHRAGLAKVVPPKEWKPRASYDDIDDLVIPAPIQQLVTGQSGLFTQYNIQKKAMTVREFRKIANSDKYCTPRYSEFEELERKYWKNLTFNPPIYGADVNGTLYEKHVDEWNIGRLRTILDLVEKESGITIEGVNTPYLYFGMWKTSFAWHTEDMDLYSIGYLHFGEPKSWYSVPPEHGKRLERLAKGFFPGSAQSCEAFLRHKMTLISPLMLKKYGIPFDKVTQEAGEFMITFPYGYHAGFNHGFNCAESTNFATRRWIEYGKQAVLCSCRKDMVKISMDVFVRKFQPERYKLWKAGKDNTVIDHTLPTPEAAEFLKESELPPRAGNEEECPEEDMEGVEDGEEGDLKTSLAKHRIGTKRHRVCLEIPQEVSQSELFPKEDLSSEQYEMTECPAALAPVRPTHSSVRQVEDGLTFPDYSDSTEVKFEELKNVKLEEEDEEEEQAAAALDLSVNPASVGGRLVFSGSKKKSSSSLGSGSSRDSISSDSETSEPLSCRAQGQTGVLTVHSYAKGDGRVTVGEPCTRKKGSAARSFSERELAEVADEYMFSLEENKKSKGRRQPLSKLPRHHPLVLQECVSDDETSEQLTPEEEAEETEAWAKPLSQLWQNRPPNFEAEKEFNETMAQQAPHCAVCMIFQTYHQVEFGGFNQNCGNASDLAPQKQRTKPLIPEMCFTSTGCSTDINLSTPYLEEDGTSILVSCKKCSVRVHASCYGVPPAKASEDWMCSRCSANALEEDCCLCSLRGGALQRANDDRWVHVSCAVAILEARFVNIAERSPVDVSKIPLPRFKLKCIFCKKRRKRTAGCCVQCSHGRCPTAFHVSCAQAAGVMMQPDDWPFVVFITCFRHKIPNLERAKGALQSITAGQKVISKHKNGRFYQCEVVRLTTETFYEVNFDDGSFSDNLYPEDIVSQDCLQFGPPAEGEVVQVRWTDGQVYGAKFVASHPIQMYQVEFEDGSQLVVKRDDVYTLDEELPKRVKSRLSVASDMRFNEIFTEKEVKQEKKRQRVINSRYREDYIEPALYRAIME

wild type KDM4A = target: T2, wild type KDM4A (Homo sapiens, UniProt O75164); assay: MALDI demethylase assay, H3K9me3 substrate peptide, wild type enzyme; type: biochemical
T2 sequence (O75164 1-1064): T1 sequence (O75164 1-1064 N198G) with G198N

[1] = scaffold test under the optimized assay conditions (50 μM 2KG), Figure S7
[2] = 100 μM compound, 50 μM 2KG, MALDI-MS

Row | Compound | inhibition of demethylase activity (KDM4A N198G mutant; [1]) | inhibition of demethylase activity (wild type KDM4A; [1]) | inhibition of demethylase activity (KDM4A N198G mutant; [2]) | inhibition of demethylase activity (wild type KDM4A; [2])
1 | O=C(O)c1ccc(O)c2ncccc12 [IOX1, 5-carboxy-8-hydroxyquinone] | inhibited | inhibited | – | –
2 | O=C(O)CNC(=O)C(=O)O [compound 2, N-oxalylglycine] | inhibited | inhibited | significantly inhibited | significantly inhibited
